According to PubChem BioAssay AID1259407 (Chemical Carcinogenesis Research Information System (CCRIS), 2018):
Active and inactive are the calls of the source. The rule behind the calls is not given here.

System: CCRIS mutagenicity, Ames/micronucleus/aberration tests
Test: CCRIS mutagenicity studies
[1] = Test System: AMES SALMONELLA TYPHIMURIUM, Strain/Indicator: TA98, Metabolic Activation: NONE, Method: PREINCUBATION
[2] = Test System: AMES SALMONELLA TYPHIMURIUM, Strain/Indicator: TA100, Metabolic Activation: NONE, Method: PREINCUBATION
[3] = Test System: AMES SALMONELLA TYPHIMURIUM, Strain/Indicator: TA100, Metabolic Activation: RAT, LIVER, S-9, AROCLOR 1254, Method: STANDARD PLATE
[4] = Test System: AMES SALMONELLA TYPHIMURIUM, Strain/Indicator: TA1535, Metabolic Activation: NONE, Method: PREINCUBATION
[5] = Test System: AMES SALMONELLA TYPHIMURIUM, Strain/Indicator: TA1537, Metabolic Activation: NONE, Method: PREINCUBATION

In the case of `CN1C[C@H](C(=O)N[C@]2(C)O[C@@]3(O)[C@@H]4CCCN4C(=O)[C@H](Cc4ccccc4)N3C2=O)C=C2c3cccc4[nH]cc(c34)C[C@H]21`, the mutagenic call (Test System: AMES SALMONELLA TYPHIMURIUM, Strain/Indicator: TA98, Metabolic Activation: HAMSTER, LIVER, S-9, AROCLOR 1254 (10%), Method: PREINCUBATION) is reported as “inactive; negative”, the mutagenic call (Test System: AMES SALMONELLA TYPHIMURIUM, Strain/Indicator: TA98, Metabolic Activation: HAMSTER, LIVER, S-9, AROCLOR 1254, Method: STANDARD PLATE) is reported as “inactive; negative” and the mutagenic call [1] is reported as “inactive; negative”. The mutagenic call (Test System: AMES SALMONELLA TYPHIMURIUM, Strain/Indicator: TA98, Metabolic Activation: NONE, Method: STANDARD PLATE) was “inactive; negative”, the mutagenic call (Test System: AMES SALMONELLA TYPHIMURIUM, Strain/Indicator: TA98, Metabolic Activation: RAT, LIVER, S-9, AROCLOR 1254 (10%), Method: PREINCUBATION) was “inactive; negative” and the mutagenic call (Test System: AMES SALMONELLA TYPHIMURIUM, Strain/Indicator: TA98, Metabolic Activation: RAT, LIVER, S-9, AROCLOR 1254, Method: STANDARD PLATE) was “inactive; negative”. The mutagenic call (Test System: AMES SALMONELLA TYPHIMURIUM, Strain/Indicator: TA100, Metabolic Activation: HAMSTER, LIVER, S-9, AROCLOR 1254 (10%), Method: PREINCUBATION) was “inactive; negative”, the mutagenic call (Test System: AMES SALMONELLA TYPHIMURIUM, Strain/Indicator: TA100, Metabolic Activation: HAMSTER, LIVER, S-9, AROCLOR 1254, Method: STANDARD PLATE) was “inactive; negative” and the mutagenic call [2] was “inactive; negative”. For the same molecule, the mutagenic call (Test System: AMES SALMONELLA TYPHIMURIUM, Strain/Indicator: TA100, Metabolic Activation: NONE, Method: STANDARD PLATE) was “inactive; negative”, the mutagenic call (Test System: AMES SALMONELLA TYPHIMURIUM, Strain/Indicator: TA100, Metabolic Activation: RAT, LIVER, S-9, AROCLOR 1254 (10%), Method: PREINCUBATION) was “inactive; negative” and the mutagenic call [3] was “inactive; negative”. For the same molecule, the mutagenic call (Test System: AMES SALMONELLA TYPHIMURIUM, Strain/Indicator: TA1535, Metabolic Activation: HAMSTER, LIVER, S-9, AROCLOR 1254 (10%), Method: PREINCUBATION) was “inactive; negative”, the mutagenic call (Test System: AMES SALMONELLA TYPHIMURIUM, Strain/Indicator: TA1535, Metabolic Activation: HAMSTER, LIVER, S-9, AROCLOR 1254, Method: STANDARD PLATE) was “inactive; negative” and the mutagenic call [4] was “inactive; negative”. The mutagenic call (Test System: AMES SALMONELLA TYPHIMURIUM, Strain/Indicator: TA1535, Metabolic Activation: NONE, Method: STANDARD PLATE) was “inactive; negative”, the mutagenic call (Test System: AMES SALMONELLA TYPHIMURIUM, Strain/Indicator: TA1535, Metabolic Activation: RAT, LIVER, S-9, AROCLOR 1254 (10%), Method: PREINCUBATION) was “inactive; negative” and the mutagenic call (Test System: AMES SALMONELLA TYPHIMURIUM, Strain/Indicator: TA1535, Metabolic Activation: RAT, LIVER, S-9, AROCLOR 1254, Method: STANDARD PLATE) was “inactive; negative”. The mutagenic call (Test System: AMES SALMONELLA TYPHIMURIUM, Strain/Indicator: TA1537, Metabolic Activation: HAMSTER, LIVER, S-9, AROCLOR 1254 (10%), Method: PREINCUBATION) was “inactive; negative”, the mutagenic call (Test System: AMES SALMONELLA TYPHIMURIUM, Strain/Indicator: TA1537, Metabolic Activation: HAMSTER, LIVER, S-9, AROCLOR 1254, Method: STANDARD PLATE) was “inactive; negative” and the mutagenic call [5] was “inactive; negative”. The mutagenic call (Test System: AMES SALMONELLA TYPHIMURIUM, Strain/Indicator: TA1537, Metabolic Activation: NONE, Method: STANDARD PLATE) was “inactive; negative”, the mutagenic call (Test System: AMES SALMONELLA TYPHIMURIUM, Strain/Indicator: TA1537, Metabolic Activation: RAT, LIVER, S-9, AROCLOR 1254 (10%), Method: PREINCUBATION) was “inactive; negative” and the mutagenic call (Test System: AMES SALMONELLA TYPHIMURIUM, Strain/Indicator: TA1537, Metabolic Activation: RAT, LIVER, S-9, AROCLOR 1254, Method: STANDARD PLATE) was “inactive; negative”. For the same molecule, the mutagenic call (Test System: MOUSE LYMPHOMA, Strain/Indicator: L5178Y (TK+/TK-), Metabolic Activation: NONE, Method: SUSPENSION/PLATE) was “inactive; negative”, the mutagenic call (Test System: MOUSE LYMPHOMA, Strain/Indicator: L5178Y (TK+/TK-), Metabolic Activation: RAT, LIVER, S-9, AROCLOR 1254, Method: SUSPENSION/PLATE) was “inactive; negative” and the mutagenic call (Test System: Mouse lymphoma, Strain/Indicator: L5178Y (tk+/tk-), Metabolic Activation: None, Method: Suspension/plate) was “inactive; negative”. The mutagenic call (Test System: Mouse lymphoma, Strain/Indicator: L5178Y (tk+/tk-), Metabolic Activation: Rat, Liver, S-9, Aroclor 1254, Method: Suspension/plate) was “inactive; negative”.

For `Cc1ccc(C2CO2)cc1` (stereo not given), the mutagenic call (Test System: E. COLI, Strain/Indicator: WP2 UVRA, Metabolic Activation: NONE, Method: STANDARD PLATE) was “active; positive”.

For `COC(=O)C1=C(C)NC(C)=C(C(=O)OC/C=C/c2ccccc2)C1c1cccc([N+](=O)[O-])c1` (stereo not given), the mutagenic call [1] was “inactive; negative”, the mutagenic call (Test System: AMES SALMONELLA TYPHIMURIUM, Strain/Indicator: TA98, Metabolic Activation: RAT, LIVER, S-9, PHENOBARBITAL AND 5,6-BENZOFLAVONE, Method: PREINCUBATION) was “inactive; negative” and the mutagenic call [2] was “inactive; negative”. The mutagenic call (Test System: AMES SALMONELLA TYPHIMURIUM, Strain/Indicator: TA100, Metabolic Activation: RAT, LIVER, S-9, PHENOBARBITAL AND 5,6-BENZOFLAVONE, Method: PREINCUBATION) was “inactive; negative”, the mutagenic call [4] was “inactive; negative” and the mutagenic call (Test System: AMES SALMONELLA TYPHIMURIUM, Strain/Indicator: TA1535, Metabolic Activation: RAT, LIVER, S-9, PHENOBARBITAL AND 5,6-BENZOFLAVONE, Method: PREINCUBATION) was “inactive; negative”. For the same molecule, the mutagenic call [5] was “inactive; negative”, the mutagenic call (Test System: AMES SALMONELLA TYPHIMURIUM, Strain/Indicator: TA1537, Metabolic Activation: RAT, LIVER, S-9, PHENOBARBITAL AND 5,6-BENZOFLAVONE, Method: PREINCUBATION) was “inactive; negative” and the mutagenic call (Test System: E. COLI, Strain/Indicator: WP2 UVRA, Metabolic Activation: NONE, Method: PREINCUBATION) was “inactive; negative”. For the same molecule, the mutagenic call (Test System: E. COLI, Strain/Indicator: WP2 UVRA, Metabolic Activation: RAT, LIVER, S-9, PHENOBARBITAL AND 5,6-BENZOFLAVONE, Method: PREINCUBATION) was “inactive; negative”.

With `O=C1CCCc2cc([N+](=O)[O-])c3ccccc3c21` the mutagenic call (Test System: AMES SALMONELLA TYPHIMURIUM, Strain/Indicator: TA98-1,8-DNP6, Metabolic Activation: NONE) was “inactive; negative”, the mutagenic call (Test System: AMES SALMONELLA TYPHIMURIUM, Strain/Indicator: TA98-1,8-DNP6, Metabolic Activation: S-9) was “inactive; negative” and the mutagenic call (Test System: AMES SALMONELLA TYPHIMURIUM, Strain/Indicator: TA98, Metabolic Activation: NONE) was “active; positive”. For the same molecule, the mutagenic call (Test System: AMES SALMONELLA TYPHIMURIUM, Strain/Indicator: TA98, Metabolic Activation: S-9) was “active; positive”, the mutagenic call (Test System: AMES SALMONELLA TYPHIMURIUM, Strain/Indicator: TA98NR, Metabolic Activation: NONE) was “inactive; negative” and the mutagenic call (Test System: AMES SALMONELLA TYPHIMURIUM, Strain/Indicator: TA98NR, Metabolic Activation: S-9) was “inactive; negative”. For the same molecule, the mutagenic call (Test System: AMES SALMONELLA TYPHIMURIUM, Strain/Indicator: TA100, Metabolic Activation: NONE) was “active; positive”, the mutagenic call (Test System: AMES SALMONELLA TYPHIMURIUM, Strain/Indicator: TA100, Metabolic Activation: S-9) was “active; positive” and the mutagenic call (Test System: AMES SALMONELLA TYPHIMURIUM, Strain/Indicator: TA100NR, Metabolic Activation: NONE) was “active; positive”. For the same molecule, the mutagenic call (Test System: AMES SALMONELLA TYPHIMURIUM, Strain/Indicator: TA100NR, Metabolic Activation: S-9) was “active; positive”.

With `O=C1c2ccccc2-c2c1ccc1ccccc21` the mutagenic call [3] was “active; positive”.
